Measured values: patent US20170128435A1, “TREATMENT OF MULTIPLE SCLEROSIS WITH LAQUINIMOD” (Teva Pharmaceutical Industries, Ltd., priority 2009, published 2017)
Where two headings read alike, the source gives them in different places.

Key:
[1] = (Polman, 2005; Sandberg-Wollheim, 2005); cited from earlier work
relapsing MS = conditions: cited from earlier work
[2] = test system: Relapsing-Remitting Multiple Sclerosis; conditions: 0.3 mg/day oral dose (Comi, 2007); cited from earlier work
[3] = test system: subjects with relapsing remitting multiple sclerosis (RRMS); assay: Phase III clinical trial ALLEGRO: daily oral laquinimod 0.6 mg vs placebo; format: in vivo, human; conditions: daily oral 0.6 mg, RRMS patients
Protocol: A multinational, multicenter (approximately 175 centers), randomized, double-blinded, parallel-group, placebo-controlled clinical trial (“ALLEGRO”) is conducted to evaluate the safety, tolerability and efficacy of daily oral administration of laquinimod 0.6 mg in subjects with relapsing remitting multiple sclerosis (RRMS). A multinational, multicenter, randomized, double-blind, parallel-group, placebo-controlled study, to evaluate the safety, tolerability and efficacy of daily oral administration of laquinimod 0.6 mg in subjects with relapsing remitting multiple sclerosis (RRMS). Double blind treatment phase: 24 months of once-daily oral administration of daily dose of 0.6 mg laquinimod or matching placebo Eligible subjects are equally randomized into one of the following treatment arms: • 1. Laquinimod capsules 0.6 mg. The 0.6 mg laquinimod is administered as laquinimod capsules which contains 0.6 mg of Laquinimod Acid per capsule with meglumine. • 2. Matching placebo capsules. Subjects are evaluated at study sites for 12 scheduled visits of the double blind phase at months: −1 (screening), 0 (baseline), 1, 2, 3, 6, 9, 12, 15, 18, 21 and 24 (termination/early discontinuation). In case of the 6 months extended study, subjects are evaluated at study sites at months 27 and 30 (termination/early discontinuation of extended study), in this case month 24 is a regular scheduled visit. The following assessments are performed at specified time points: • 1. Vital signs are measured at each study visit. • 2. A physical examination is performed at months −1 (screening), 0 (baseline) 1, 3, 6, 12, 18 and 24 (termination/early discontinuation core study). In case of the 6 months extended study, additional examination is performed at month 30 (termination/early discontinuation of extended study). • 3. The following safety clinical laboratory tests are performed: • a. Complete blood count (CBC) with differential—at all scheduled visits. A reticulocyte count is added to the CBC at months 0 (baseline) and 24/30 (termination/early discontinuation). • b. Serum chemistry (including electrolytes, liver enzymes, direct and total bilirubin and pancreatic amylase and CPK), and urinalysis—at all scheduled visits. • c. A rapid urine β-hCG test is performed in women of child-bearing potential at baseline (month 0) and at each scheduled study visit thereafter (at site). • d. β-hCG in women of child-bearing potential is performed at all scheduled visits. • e. Starting after visit Month 3 a rapid urine β-hCG test is performed in women of child-bearing potential every 28 (±2) days. The subject is contacted by telephone within 72 hours after the test is scheduled to be performed and asked specific questions regarding the test. In case of suspected pregnancy (positive urine β-hCG test result), the caller makes sure that the study drug has been discontinued and the subject is instructed to arrive at the site as soon as possible with all study drugs. • 4. Markers of inflammation (serum conventional C-reactive protein and fibrinogen)—at screening, baseline and all scheduled visits thereafter. • 5. During the first 3 months periodical phone calls are placed by the site personnel every two weeks. […] ECG is performed at months −1 (screening; additional recording, up to 30 minutes apart is performed if QTc is […] 450 msec), (baseline; three recordings, 15 minutes apart), 1, 2, 3, 6, 12, 18 and 24 (termination/early discontinuation). In case of the 6 months extended study, ECG is performed at month 30 (termination/early discontinuation of the extended study). • 7. Chest X-ray is performed at months −1 (screening), (if not performed within 7 months prior to the screening visit). • 8. Adverse Events (AEs) are monitored throughout the study. • 9. Concomitant medications are monitored throughout the study. • 10. […]

[4] = test system: subjects with Relapsing-Remitting Multiple Sclerosis (RRMS); assay: Phase III clinical trial BRAVO: laquinimod over placebo, with Interferon β-1a (Avonex®) reference arm; format: in vivo, human; conditions: daily oral 0.6 mg, RRMS patients
Protocol: A multinational, multicenter, randomized, parallel-group, clinical trial is performed in subjects with RRMS (“BRAVO”). BRAVO is conducted to assess the efficacy, safety and tolerability of laquinimod over placebo in a double-blinded design and of a reference arm of Interferon β-1a (Avonex®) in a rater-blinded design. A multinational, Multicenter, Randomized, Parallel-Group study performed in subjects with Relapsing-Remitting Multiple Sclerosis (RRMS) to assess the efficacy, safety and tolerability of laquinimod over placebo in a double-blind design and of a reference arm of Interferon β-1a (Avonex®)in a rater-blinded design. Treatment phase: 24 months of once-daily oral administration of laquinimod 0.6 mg, matching oral placebo or once-weekly intramuscular administration of Interferon β-1a (Avonex®) 30 mcg. Eligible subjects are randomized in a 1:1:1 ratio (oral laquinimod: oral placebo: Avonex®) and assigned to one of the following three treatment arms: • 1. Laquinimod 0.6 mg per os once daily (400 subjects). The 0.6 mg laquinimod is administered as laquinimod capsules which contains 0.6 mg of Laquinimod Acid per capsule with meglumine. • 2. Matching placebo (for laquinimod) per os once daily (400 subjects). • 3. Interferon β-1a (Avonex®) 30 mcg intramuscular injection once weekly (400 subjects). Subjects on oral treatment are managed in a double-blind manner. Subjects assigned to injectable treatment with Avonex® and their Treating Neurologist/Physician are unblinded to the treatment assignment, but assessed neurologically by an Examining Neurologist/Physician in a blinded manner (potential IM injection sites are covered). During the study, the following assessments are performed (regardless of the treatment assignment) at the specified time points: • 1. Vital signs are measured at each study visit. • 2. A physical examination is performed at months −1 (screening), 0 (baseline) 1, 3, 6, 12, 18 and 24 (termination/early discontinuation). • 3. The following safety clinical laboratory tests are performed: • a. Complete blood count (CBC) with differential—at all scheduled visits. A reticulocyte count is added to the CBC at months 0 (baseline) and 24 (termination/early discontinuation) as well as in occasions of significant decrease in hemoglobin. • b. Serum chemistry (including electrolytes, liver enzymes, direct and total bilirubin, CPK and pancreatic amylase), and urinalysis—at all scheduled visits. • c. Serum TSH, T3 and Free T4 are measured at months 0 (baseline), 6, 12, 18 and 24 (termination/early discontinuation). • d. […] Markers of inflammation (serum conventional C-reactive protein and fibrinogen) are measured at all scheduled visits. • 5. […]

SMILES	oral bioavailability [1]	development of active MRI lesions (relapsing MS; 0.3 mg/day oral dose, relapsing MS (RRMS and SPMS) (Polman, 2005))	development of active MRI lesions (relapsing MS; relapsing MS, dose not stated (Polman, 2005))	MRI and clinical effect as compared to placebo [2]	MRI-monitored disease activity: cumulative number of enhancing lesions on T1-weighted images [3]	MRI-monitored disease activity: cumulative number of new T2 lesions [3]	MRI-monitored disease activity: cumulative number of new hypointense lesions on T1-scans [3]	accumulation of physical disability, as measured by the time to confirmed progression of EDSS [3]	relapse rate ([3]; double blind study period)	number of confirmed relapses during the double blind study period ([3]; vs placebo)	accumulation of physical disability, as measured by the MSFC score at the end of the treatment period [4]	accumulation of physical disability, as measured by time to confirmed progression of EDSS [4]	brain atrophy, as measured by percent brain volume change from baseline to the end of the treatment period [4]	number of confirmed relapses (directly related to the relapse rate) ([4]; treatment period)
CCN(C(=O)c1c(O)c2c(Cl)cccc2n(C)c1=O)c1ccccc1 [Laquinimod sodium]	high													
CCN(C(=O)c1c(O)c2c(Cl)cccc2n(C)c1=O)c1ccccc1 [laquinimod]		reduce	reduce	neither MRI nor clinical effect	reduces	reduces	reduces	reduces	reduces	reduces	reduces	reduces	reduces	reduces
